pIC50: −log10 of the molar value. Counter-ions that a name gives are not always drawn.
Molecular target: T1, SPNS2 (Mus musculus, UniProt Q91VM4)
T1 construct: expressed in transfected cells; host or cells: HeLa or U937 cells
T1 sequence (Q91VM4 1-549): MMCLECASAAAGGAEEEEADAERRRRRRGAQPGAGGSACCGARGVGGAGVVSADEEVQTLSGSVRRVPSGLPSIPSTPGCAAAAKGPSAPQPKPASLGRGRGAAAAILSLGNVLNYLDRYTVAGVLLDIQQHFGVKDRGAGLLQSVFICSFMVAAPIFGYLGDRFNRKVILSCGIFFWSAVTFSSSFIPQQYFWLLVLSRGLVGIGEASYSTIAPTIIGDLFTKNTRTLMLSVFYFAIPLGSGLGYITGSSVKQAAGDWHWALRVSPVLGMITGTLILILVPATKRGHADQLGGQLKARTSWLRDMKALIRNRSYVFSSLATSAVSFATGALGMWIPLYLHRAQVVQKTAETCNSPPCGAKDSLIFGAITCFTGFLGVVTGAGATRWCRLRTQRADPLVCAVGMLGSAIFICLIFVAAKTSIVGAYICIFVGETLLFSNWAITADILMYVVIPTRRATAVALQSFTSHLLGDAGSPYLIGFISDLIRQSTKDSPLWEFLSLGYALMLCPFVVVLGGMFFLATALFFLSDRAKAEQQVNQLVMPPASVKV
Test: S1P transporter assay: S1P release from whole cells expressing SPNS2
Type: cell-based
Details: HeLa or U937 cells expressing mouse SPNS2; 18 hours; S1P in media measured by LC-MS; read-out: IC50 (in vitro inhibition against SPNS2)
Procedure: Transporter assays are vectorial and therefore require measurement of the transported analyte in different compartments. The S1P transporter SPNS2 only exports S1P, which obviates measuring uptake of S1P into transporter-expressing cells. Thus, transporter activity was determined by quantifying S1P release from whole cells expressing SPNS2. SPNS2 inhibitor potency was assessed using whole cell assays. HeLa or U937 cells expressing mouse SPNS2 were used to determine inhibitor potency (IC50). Cells were plated onto 12 well plates and assayed when the cell monolayers became confluent. Cell growth media (RPMI-1640 containing 10% fetal bovine serum) was replaced with 2 mL of serum-free media (RPMI-1640) containing fatty acid free bovine serum albumin (BSA) (0.2% w/v) and supplemented with 4-deoxypyridoxine (DOP) (1 mM), NaF (2 mM), Na3VO4 (0.2 mM) to inhibit S1P degradation. Test articles (1×10-9-1×10^-4 M) were assayed in duplicate or triplicate. After 18 hours, media was collected, an internal recovery standard (0.005 mL of 5×10^-7 M deuterated (d7) S1P in methanol) was added, the BSA was precipitated with trichloroacetic acid and the bound S1P extracted with methanol. S1P and S1P-d7 were measured by liquid chromatography mass spectrometry. Inhibitor potency at the human SPNS2 ortholog was determined by an analogous assay using U-937 cells, which endogenously express human SPNS2.

| Structure (SMILES) | pIC50 |
| --- | --- |
| CCCCCCCCCCc1ccc(-c2noc([C@@H]3CCC[C@@H](N)C3)n2)cc1 (racemic) [Compound 5q, (±)-trans-3-(3-(4-decylphenyl)-1,2,4-oxadiazol-5-yl)cyclohexan-1-amine hydrochloride] | < 5.70 |
| CCCCCCCOc1ccc2cc(-c3noc([C@@H]4CCNC4)n3)ccc2c1 [Compound 5x, (R)-3-(6-(heptyloxy)naphthalen-2-yl)-5-(pyrrolidin-3-yl)-1,2,4-oxadiazole hydrochloride] | < 5.70 |
| CCCCCCCOc1ccc2cc(-c3noc(CCCN)n3)ccc2c1 [Compound 5w, 3-(3-(6-(heptyloxy)naphthalen-2-yl)-1,2,4-oxadiazol-5-yl)propan-1-amine hydrochloride] | ≥ 5.70 |
| CCCCCCCCCCc1ccc(-c2noc([C@H]3CCC[C@@H](N)C3)n2)cc1 (racemic) [Compound 5p, (f)-cis-3-(3-(4-decylphenyl)-1,2,4-oxadiazol-5-yl)cyclohexan-1-amine hydrochloride] | < 5.70 |
| CCCCCCCCCOc1ccc(-c2noc(CCCN)n2)cc1 [Compound 5t, 3-(3-(4-(nonyloxy)phenyl)-1,2,4-oxadiazol-5-yl)propan-1-amine hydrochloride] | < 5.70 |
| CCCCCCCCCCc1ccc(-c2noc(CC(O)CN3CCCC3)n2)cc1 (stereo not drawn) [Compound 6b, 1-(3-(4-decylphenyl)-1,2,4-oxadiazol-5-yl)-3-(pyrrolidin-1-yl)propan-2-ol hydrochloride] | < 5.70 |
| CCCCCCCCc1ccc(CCc2noc(CCCN)n2)cc1 [Compound 5s, 3-(3-(4-octylphenethyl)-1,2,4-oxadiazol-5-yl)propan-1-amine hydrochloride] | < 5.70 |
| CCCCCCCCCc1ccc(Cc2noc(CCCN)n2)cc1 [Compound 5r, 3-(3-(4-nonylbenzyl)-1,2,4-oxadiazol-5-yl)propan-1-amine hydrochloride] | < 5.70 |
| C/C(=N\OCCCCc1ccccc1)c1ccc(-c2noc(CCCN)n2)cc1 [Compound 28, 1-(4-(5-(3-aminopropyl)-1,2,4-oxadiazol-3-yl)phenyl)ethan-1-one 0-(4-phenylbutyl) oxime hydrochloride] | < 5.70 |
| CCCCCCCCCCc1ccc(-c2noc(C[C@H](C)N)n2)cc1 [Compound 5c, (S)-1-(3-(4-decylphenyl)-1,2,4-oxadiazol-5-yl)propan-2-amine 2,2,2-trifluoroacetate] | < 5.70 |
| CCCCCCCCCCc1ccc(-c2noc(CCCN3CCCCC3)n2)cc1 [Compound 6e, 3-(4-decylphenyl)-5-(3-(piperidin-1-yl)propyl)-1,2,4-oxadiazole hydrochloride] | < 5.70 |
| CCCCCCCCCCc1ccc(-c2noc(CCCN)n2)cc1 [Compound 5e, 3-(3-(4-decylphenyl)-1,2,4-oxadiazol-5-yl)propan-1-amine 2,2,2-trifluoroacetate] | ≥ 5.70 |
| CCCCCCCCCOc1ccc(-c2noc(CCCN)n2)cc1F [Compound 5v, 3-(3-(3-fluoro-4-(nonyloxy)phenyl)-1,2,4-oxadiazol-5-yl)propan-1-amine hydrochloride] | ≥ 5.70 |

Other lines, results leading:

| pIC50 | Structure (SMILES) |
| --- | --- |
| ≥ 5.70 | CCCCCCCCCCc1ccc(-c2noc(CNC(=O)[C@@H]3CCC[C@H](N)C3)n2)cc1 [Compound 9r, (1R,3S)-3-amino-N-((3-(4-decylphenyl)-1,2,4-oxadiazol-5-yl)methyl)cyclohexane-1-carboxamide hydrochloride] |
| < 5.70 | CCCCCCCCCCc1ccc(-c2noc(CNC(=O)[C@@H](N)[C@@H](C)CC)n2)cc1 [Compound 9n, (2S,3S)-2-amino-N-((3-(4-decylphenyl)-1,2,4-oxadiazol-5-yl)methyl)-3-methylpentanamide hydrochloride] |
| < 5.70 | CCCCCCCCCCc1ccc(-c2noc(CNC(=O)[C@@H]3C[C@H](O)CN3)n2)cc1 [Compound 9v, (2S,4S)—N-((3-(4-decylphenyl)-1,2,4-oxadiazol-5-yl)methyl)-4-hydroxypyrrolidine-2-carboxamide hydrochloride] |
| < 5.70 | CCCCCCCCCCc1ccc(-c2noc(CNC(=O)[C@@H]3C[C@@H](F)CN3)n2)cc1 [Compound 9ae, (2S,4R)—N-((3-(4-decylphenyl)-1,2,4-oxadiazol-5-yl)methyl)-4-fluoropyrrolidine-2-carboxamide hydrochloride] |
| < 5.70 | CCCCCCCCCCc1ccc(-c2noc(CNC(=O)[C@@H](N)CO)n2)cc1 [Compound 9s, (S)-2-amino-N-((3-(4-decylphenyl)-1,2,4-oxadiazol-5-yl)methyl)-3-hydroxypropanamide hydrochloride] |
| ≥ 5.70 | CCCCCCCCCCc1ccc(-c2noc(CNC(=O)[C@@H](N)CCCC(=O)OC)n2)cc1 [Compound 9aa, methyl (S)-5-amino-6-(((3-(4-decylphenyl)-1,2,4-oxadiazol-5-yl)methyl)amino)-6-oxohexanoate hydrochloride] |
| ≥ 5.70 | CCCCCCCCCCc1ccc(-c2noc(CCNC(=O)CN)n2)cc1 [Compound 9h, 2-amino-N-(2-(3-(4-decylphenyl)-1,2,4-oxadiazol-5-yl)ethyl)acetamide hydrochloride] |
| ≥ 5.70 | CCCCCCCCCCc1ccc(-c2noc(CNC(=O)[C@@H]3CC[C@@H](N)C3)n2)cc1 [Compound 9ah, (1R,3R)-3-amino-N-((3-(4-decylphenyl)-1,2,4-oxadiazol-5-yl)methyl)cyclopentane-1-carboxamide hydrochloride] |
| < 5.70 | CCCCCCCCCCc1ccc(-c2noc([C@@H]3CCN(C(=O)CN)C3)n2)cc1 [Compound 9al, (R)-2-amino-1-(3-(3-(4-decylphenyl)-1,2,4-oxadiazol-5-yl)pyrrolidin-1-yl)ethan-1-one 2,2,2-trifluoroacetate] |
| < 5.70 | CCCCCCCCCCc1ccc(-c2noc(CNC(=O)[C@@H]3C[C@@H](O)CN3)n2)cc1 [Compound 9w, (2S,4R)—N-((3-(4-decylphenyl)-1,2,4-oxadiazol-5-yl)methyl)-4-hydroxypyrrolidine-2-carboxamide hydrochloride] |
| < 5.70 | CCCCCCCCCCc1ccc(-c2noc(CNC(=O)[C@@H](N)C(C)C)n2)cc1 [Compound 9f, (S)-2-amino-N-((3-(4-decylphenyl)-1,2,4-oxadiazol-5-yl)methyl)-3-methylbutanamide hydrochloride] |
| < 5.70 | CCCCNC(=O)c1ccc(-c2noc(CCCN)n2)cc1 [Compound 13b, 4-(5-(3-aminopropyl)-1,2,4-oxadiazol-3-yl)-N-butylbenzamide hydrochloride] |
| ≥ 5.70 | CCCCCCCCCCc1ccc(-c2noc(CNC(=O)CNC)n2)cc1 [Compound 9l, N-((3-(4-decylphenyl)-1,2,4-oxadiazol-5-yl)methyl)-2-(methylamino)acetamide hydrochloride] |
| < 5.70 | CCCCCCCCCCc1ccc(-c2noc(CNC(=O)C3(N)CC3)n2)cc1 [Compound 9af, 1-amino-N-((3-(4-decylphenyl)-1,2,4-oxadiazol-5-yl)methyl)cyclopropane-1-carboxamide hydrochloride] |
| < 5.70 | CCCCCCCCCCc1ccc(-c2noc(CC(O)CN(C)C)n2)cc1 (stereo not drawn) [Compound 7b, 1-(3-(4-decylphenyl)-1,2,4-oxadiazol-5-yl)-3-(dimethylamino)propan-2-ol hydrochloride] |
| < 5.70 | CCCCCCCCCCc1ccc(-c2noc(CNC(=O)[C@H]3CCCCN3)n2)cc1 [Compound 9t, (R)—N-((3-(4-decylphenyl)-1,2,4-oxadiazol-5-yl)methyl)piperidine-2-carboxamide hydrochloride] |
| < 5.70 | CCCCCCCCNC(=O)c1ccc(-c2noc(CCCN)n2)cc1 [Compound 13d, 4-(5-(3-aminopropyl)-1,2,4-oxadiazol-3-yl)-N-octylbenzamide hydrochloride] |
| ≥ 5.70 | CCCCCCCCCCc1ccc(-c2noc([C@@H](N)CCCCN)n2)cc1 [Compound 19a, (S)-1-(3-(4-decylphenyl)-1,2,4-oxadiazol-5-yl)pentane-1,5-diamine hydrochloride] |
| < 5.70 | CCCCCCCCCCc1ccc(-c2noc(CNC(=O)C[C@@H](O)CN)n2)cc1 [Compound 9y, (R)-4-amino-N-((3-(4-decylphenyl)-1,2,4-oxadiazol-5-yl)methyl)-3-hydroxybutanamide hydrochloride] |
| < 5.70 | CCCCCCCCCCc1ccc(-c2noc(CNC(=O)[C@H]3CNCCO3)n2)cc1 [Compound 9q, (R)—N-((3-(4-decylphenyl)-1,2,4-oxadiazol-5-yl)methyl)morpholine-2-carboxamide hydrochloride] |
